Experimental data as given in ChEMBL document CHEMBL5390225, “Discovery and structural optimization of a new series of N-acyl-2-aminobenzothiazole as inhibitors of Zika virus” (Bioorg Med Chem, 2023).

Columns and labels:
Zika virus [1] = assay: Antiviral activity against Zika virus PE243 infected in African green monkey Vero E6 cells assessed as inhibition of viral replication at 10 uM incubated for 72 hrs by immunofluorescence analysis; format: functional; details: PE243, Vero C1008
Nonstructural protein 3 = Nonstructural protein 3 (Zika virus, UniProt A0A024AXB9); assay: Inhibition of N-terminal His-tagged Zika virus NS2B protease (46 to 99 residues)/NS3 protease (1 to 187 residues) expressed in Escherichia coli Rosetta2(DE3) cells using Boc-Gly-Arg-Arg-AMC as substrate preincubated with enzyme for 10 mins followed by substrate addition and measured for 10 mins by fluorescence based analysis
Sequence of Nonstructural protein 3 (A0A024AXB9 whole entry, the tested form may be a part): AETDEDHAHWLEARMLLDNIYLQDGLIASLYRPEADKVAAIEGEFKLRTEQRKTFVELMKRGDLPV

Zika virus [2] = assay: Antiviral activity against Zika virus infected in golden hamster BHK21-RepZIKV_IRES-Neo cells assessed as inhibition of viral replication by measuring reduction in renilla luciferase expression at 10 uM measured after 72 hrs by luciferase reporter gene assay relative to control; format: functional, Mesocricetus auratus; details: BHK-21
Zika virus [3] = assay: Antiviral activity against Zika virus PE243 infected in African green monkey Vero E6 cells assessed as inhibition of viral replication at 2 uM incubated for 72 hrs by immunofluorescence analysis; format: functional; details: PE243, Vero C1008
Zika virus [4] = assay: Antiviral activity against Zika virus PE243 infected in African green monkey Vero E6 cells assessed as inhibition of viral replication incubated for 72 hrs by immunofluorescence analysis; format: functional, organism-based; details: PE243, Vero C1008, 72 h
[5] = Cytotoxicity against African green monkey Vero E6 cells assessed as cell viability at 2 uM measured after 72 hrs by MTT assay relative to control; format: toxicity, cell-based, Vero C1008; details: chlorocebus sabaeus, read-out: Activity
BHK-21 = assay: Cytotoxicity against golden hamster BHK21-RepZIKV_IRES-Neo cells assessed as reduction in cell viability measured after 72 hrs by MTT assay; format: toxicity, cell-based, Mesocricetus auratus; details: bhk-21, 72 h
[6] = Cytotoxicity against African green monkey Vero E6 cells assessed as cell viability at 10 uM measured after 72 hrs by MTT assay relative to control; format: toxicity, cell-based, Vero C1008; details: chlorocebus sabaeus, read-out: Activity
Zika virus [7] = assay: (§1) Inhibition of Zika virus BeH823339 NS2B protease (49 to 95 residues) R96A mutant/NS3 protease (1 to 170 residues) R29G/ C80S/C143S mutant expressed in Escherichia coli BL21 (DE3) cells using Bz-Nle-Lys-Lys-Arg-AMC as a fluorogenic substrate at 100 uM preincubated with enzyme for 10 mins by fluorescence-based analysis relative to control
Zika virus [8] = assay: as §1, with “uM” for “uM preincubated with enzyme for 10 mins”
[9] = Cytotoxicity against African green monkey Vero E6 cells assessed as reduction in cell viability measured after 72 hrs by MTT assay; format: toxicity, cell-based, Vero C1008; details: chlorocebus sabaeus
[10] = Selectivity index, ratio of CC50 for cytotoxicity against African green monkey Vero E6 cells to EC50 for antiviral activity against Zika virus PE243 infected in African green monkey Vero E6 cells; format: toxicity, cell-based, Vero C1008; details: read-out: Ratio CC50/EC50

Compound: COc1ccc(S(=O)(=O)Nc2ccc(C(=O)Nc3nc4ccccc4s3)cc2)cc1
- inhibition at 10 µM (Zika virus [1]): 74.4%
- IC50 (Nonstructural protein 3): 5.2 µM
- inhibition at 10 µM (Zika virus [2]): 63.4%
- inhibition at 2 µM (Zika virus [3]): 10.8%
- EC50 (Zika virus [4]): 11.1 µM
- viability at 72 h, 2 µM [5]: 88.7%
- Activity (BHK-21): Non-Toxic
- viability at 72 h, 10 µM [6]: 94.8%
- inhibition (Zika virus [7]): 32%
- inhibition (Zika virus [8]): 38%
- CC50 at 72 h [9]: 13.3 µM
- selectivity ratio [10]: 1.2
